Laboratory results reported in BindingDB's records for doi:10.1021/jm00089a028 (1992).
Residues, ends and D or L forms follow the SMILES beside them.

Target: Endothelin receptor type B (Sus scrofa)
Experiment: Binding activity against Endothelin B receptor 0f Porcine cerebellum membranes

SMILES	IC50
CC(C)[C@H]1NC(=O)[C@H](C)NC(=O)[C@@H](CC(=O)O)NC(=O)[C@@H](Cc2c[nH]c3ccccc23)NC(=O)[C@@H]2CCCN2C1=O (HELM PEPTIDE1{A.[dV].P.[dW].[dD]}$PEPTIDE1,PEPTIDE1,1:R1-5:R2$$$V2.0)	> 100 µM
CC(C)C[C@@H]1NC(=O)[C@@H](C(C)C)NC(=O)[C@@H]2CCCN2C(=O)[C@@H](CCC(=O)O)NC(=O)[C@@H](Cc2c[nH]c3ccccc23)NC1=O (HELM PEPTIDE1{L.[dW].[dE].P.[dV]}$PEPTIDE1,PEPTIDE1,1:R1-5:R2$$$V2.0)	> 100 µM

The next lines start with the values.

IC50	SMILES
> 100 µM	CC[C@H](C)[C@H]1NC(=O)[C@H](C)NC(=O)[C@@H](CCC(=O)O)NC(=O)[C@@H](Cc2c[nH]c3ccccc23)NC(=O)[C@H](CC(C)C)NC1=O (HELM PEPTIDE1{A.[CC[C@H](C)[C@@H](N[*:1])C(=O)[*:2]].L.[dW].[dE]}$PEPTIDE1,PEPTIDE1,1:R1-5:R2$$$V2.0)
30 µM	CC(C)C[C@@H]1NC(=O)[C@@H](C(C)C)NC(=O)CN(C)C(=O)[C@@H](CC(=O)O)NC(=O)[C@@H](Cc2c[nH]c3ccccc23)NC1=O (HELM PEPTIDE1{L.[dW].[dD].[Sar].[dV]}$PEPTIDE1,PEPTIDE1,1:R1-5:R2$$$V2.0)
47 µM	CC(C)C[C@@H]1NC(=O)[C@@H](C(C)C)NC(=O)[C@H](C)N(C)C(=O)[C@@H](CC(=O)O)NC(=O)[C@@H](Cc2c[nH]c3ccccc23)NC1=O (HELM PEPTIDE1{L.[dW].[dD].[meA].[dV]}$PEPTIDE1,PEPTIDE1,1:R1-5:R2$$$V2.0)
